Test results from patent US7294715B2, “Aporphine and oxoaporphine compounds and pharmaceutical use thereof” (Lotus Pharmaceutical Co., Ltd., priority 2003, dated 2007).
Marks after values point to notes of the source that are not given here.

Legend:
[1] = Safety at multiples of the effective dose in rabbits; details: 10-100 times the effective dose
[2] = system: Langendorff perfused rat hearts; test: Coronary flow in Langendorff perfused rat hearts; details: FIG. 3
Method: Adult male Wistar rats weighing 275-325 g, were intraperitoneally anesthetized with sodium pentobarbital (50 mg·kg^−1) and given heparin (300 Ukg·kg^−1) by the same route. Hearts were rapidly excised and immersed in 37° C. perfusion medium. The aorta was cannulated and retrograde-perfused at 80 mmHg with Tyrode's solution containing 120 mM NaCl, 25 mM NaHCO3, 3 mM KCl, 1.2 mM NaH2PO4, 2.5 mM CaCl2, 1.2 mM MgCl2, and […] 5.5 mM glucose. The perfusate was equilibrated with 95% O2, 5% CO2 at 37° C. Perfusion pressure was monitored using a MLT844/D pressure transducer (Capto, Horten, Norway) connected to a PowerLab (ADInstruments, Castle Hill, Australia). The coronary effluent was collected for the measurement of coronary flow.

[3] = system: reperfusion induced arrhythmia in rats; test: Reperfusion induced arrhythmia in rats; type: in vivo, rat; details: for Ventricular tachycardia Duration: vehicle 46.6 ± 17.5; for Ventricular tachycardia Incident (%): vehicle 100; for Ventricular fibrillation Duration: vehicle 124.2 ± 25.9
Method: Opened-chest SD (Sprague-Dawley) anesthetized rats underwent myocardial ischemia by 5 min-occlusion of the left main coronary artery and followed by 30 min-reperfusion. During the myocardium reperfusion period, heart rate, blood pressure and EKG changes were recorded. Ventricular ectopic activity was evaluated according to the diagnostic criteria advocated by the Lambeth Convention. The incidences and durations of ventricular tachycardia and ventricular fibrillation were determined.

[4] = system: regional myocardial ischemia and reperfusion (LAD occlusion); test: Infarct size in a rat model of regional myocardial ischemia and reperfusion; type: in vivo; details: iv
Method: Seventy two male Wistar rats (215-300 g, Charles River, Margate, U.K.) were anaesthetized with thiopentone sodium (Intraval®, 120 mg/kg i.p.; Rhone-Merrieux, Essex, U.K.). The rats were tracheotomised and ventilated with a Harvard ventilator (70 strokes/min, tidal volume: 8-10 ml/kg, inspiratory oxygen concentration: 30%). Body temperature was maintained at 38±1° C. The right carotid artery was cannulated and connected to a pressure transducer (MLT 844, AD Instruments Ltd, Hastings, UK) to monitor mean arterial blood pressure and heart rate, which were continuously recorded on a data acquisition system (Powerlab® Version 4.0.4, AD Instruments, Hastings, UK) installed on a Dell Dimension 4100 personal computer, throughout the experiment. The right jugular vein was cannulated for the administration of test compound and Evans Blue dye (at the end of the experiment). A parasternal thoracotomy was performed, the heart was suspended in a temporary pericardial cradle and a snare occluder was placed around the left anterior descending coronary artery (LAD). After completion of the surgical procedure the animals were allowed to stabilize for 30 min before LAD ligation. The coronary artery was occluded at time 0 by tightening of the occluder. After 25 min of acute myocardial ischemia, the occluder was released to allow reperfusion for 2 h.
The test compounds were administered as a slow intravenous injection (i.v.) 5 min prior to the onset of reperfusion of the ischemic heart. Following the 2 h reperfusion period, the coronary artery was re-occluded and Evans Blue dye (1 ml of 2% w/v) was injected into the left ventricle, via the right jugular vein cannula, to distinguish between perfused and non-perfused (AAR) sections of the heart. The Evans Blue solution stains the perfused myocardium, while the occluded vascular bed remains uncolored. The animals were sacrificed with an overdose of anesthetic and the heart excised. The heart was sectioned into slices of 3-4 mm thick, the right ventricular wall was removed, and the AAR (pink) was separated from the non-ischemic (blue) area. […]

[5] = iv infusion 0.5 ug/kg, vehicle 80
[6] = iv infusion 5 ug/kg, vehicle 80

COc1cc2c(cc1OC)-c1c(OC)c(OC)cc3c1C(C2)N(CCOc1ccccc1OC)CC3 (stereo not shown) [Compound 16, N-[2-(2-methoxyphenoxyl)]ethylnorglaucine]
animal deaths [1]: no animals died | coronary blood flow [2]: increasing coronary blood flow | Ventricular tachycardia Duration ([3]; iv infusion 0.5 ug/kg): 23.3 ± 4.8 s | Mortality (%) [3, 5]: 62% | Ventricular fibrillation Incident (%) [3, 5]: 85% | Ventricular tachycardia Incident (%) ([3]; iv infusion 0.5 ug/kg): 92% | Ventricular fibrillation Duration ([3]; iv infusion 0.5 ug/kg): 111.5 ± 24.4 s | Ventricular tachycardia Duration ([3]; iv infusion 5 ug/kg): 27.9 ± 7.9 s | Mortality (%) [3, 6]: 46% | Ventricular fibrillation Incident (%) [3, 6]: 82% | Ventricular tachycardia Incident (%) ([3]; iv infusion 5 ug/kg): 91% | Ventricular fibrillation Duration ([3]; iv infusion 5 ug/kg): 72.2 ± 22.9 s | Ventricular tachycardia Duration ([3]; iv infusion 50 ug/kg): 9.8 ± 8.8 s | Ventricular fibrillation Incident (%) ([3]; iv infusion 50 ug/kg, vehicle 80): 54% | Mortality (%) ([3]; iv infusion 50 ug/kg, vehicle 80, p < 0.05 vs vehicle): 23* % | Ventricular tachycardia Incident (%) ([3]; iv infusion 50 ug/kg): 85% | Ventricular fibrillation Duration ([3]; iv infusion 50 ug/kg): 42.3 ± 18.6 s | infarct size ([4]; 0.5 mg/kg): 47±4 % of the area at risk | infarct size ([4]; 1.5 mg/kg): 47±2 % of the area at risk
